Data taken from patent publication US12312359B2 (Vitae Pharmaceuticals, LLC, priority 2016, dated 2025).

Key:
[1] = system: human acute monocytic leukemia cell line MV-4-11; test: Assay 2: cell proliferation assay (ATP quantitation, CellTiter-Glo), MV-4-11; assay type: cell-based; settings: MV-4-11 cells
Method in brief: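 Read-out is CellTiter-Glo luminescence quantifying ATP. Compound exposure lasted 72 h at 37° C., 5% CO2, with 1.67×10^4 MV-4-11 cells per well in 10% FBS medium, alongside HL-60 toxicity-control cells.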

[2] = target: T1, biotinylated wild-type menin and MLL-AF9 fusion protein (menin/MLL binding) (Homo sapiens, UniProt O00255); test: Assay 1: menin/MLL binding AlphaLISA assay, wild-type menin; settings: Table 30; column head does not say wild-type or mutated menin
T1 construct: made in house; host or cells: menin: E. coli; MLL-AF9-FLAG: HEK293 cells, used as cleared lysate
T1 sequence (O00255 1-610): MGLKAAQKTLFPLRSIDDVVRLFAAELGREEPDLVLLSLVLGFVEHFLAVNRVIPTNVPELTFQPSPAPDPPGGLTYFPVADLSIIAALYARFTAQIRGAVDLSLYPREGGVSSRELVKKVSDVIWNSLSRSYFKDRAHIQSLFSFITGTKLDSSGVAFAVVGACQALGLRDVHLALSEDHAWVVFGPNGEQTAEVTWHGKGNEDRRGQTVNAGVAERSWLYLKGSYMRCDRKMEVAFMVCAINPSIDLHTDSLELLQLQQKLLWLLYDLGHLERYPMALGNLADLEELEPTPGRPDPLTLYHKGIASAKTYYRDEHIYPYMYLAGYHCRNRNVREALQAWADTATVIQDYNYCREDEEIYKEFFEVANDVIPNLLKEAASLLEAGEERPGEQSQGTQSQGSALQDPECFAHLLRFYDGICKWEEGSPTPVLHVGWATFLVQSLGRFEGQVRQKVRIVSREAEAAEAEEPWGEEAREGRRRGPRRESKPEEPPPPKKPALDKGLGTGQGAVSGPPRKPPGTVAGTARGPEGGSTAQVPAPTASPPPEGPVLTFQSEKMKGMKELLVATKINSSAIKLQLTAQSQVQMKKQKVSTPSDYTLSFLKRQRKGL
Method in brief: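 Compound was preincubated 30 min at room temperature with biotinylated menin (5 nM) and MLL-AF9-FLAG lysate from HEK293 cells, pH 7.4 buffer with 5% DMSO and DTT. Bead-based Alpha signal after 60 min with streptavidin donor and anti-FLAG acceptor beads; four-parameter logistic fit gave IC50.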

Row | Compound | EC50 ([1]; Homo sapiens, MV4-11, 72 h) | IC50 [2] | EC50 ([1]; 72 h)
1 | CC(C)c1ncncc1-c1cc(F)ccc1Oc1cncnc1N1CCC2(CCN(CC(C)(C)O)C2)C1 (stereo not drawn) [Example 176, 1-(7-(5-(4-fluoro-2-(4-isopropylpyrimidin-5-yl)phenoxy)pyrimidin-4-yl)-2,7-diazaspiro[4.4]nonan-2-yl)-2-methylpropan-2-ol] | ≥ 1 µM | < 0.1 µM | 
2 | O=C(c1cc(F)ccc1Oc1cncnc1N1CCC2(CCN(Cc3ccc4[nH]c(=O)[nH]c4c3)C2)C1)N1C2CCC1CC2 (stereo not drawn) [Example 212, 5-((7-(5-(2-((1s,4s)-7-azabicyclo[2.2.1]heptane-7-carbonyl)-4-fluorophenoxy)pyrimidin-4-yl)-2,7-diazaspiro [4.4]nonan-2-yl)methyl)-1,3-dihydro-2H-benzo[d]imidazol-2-one] | 0.1 to 1 µM | < 0.1 µM | 
3 | O=C(c1cc(F)ccc1Oc1cncnc1N1CCC2(CCN(Cc3ccc4[nH]c(=O)[nH]c4c3)C2)C1)N1CCCC1 (stereo not drawn) [Example 154, 5-((7-(5-(4-fluoro-2-(pyrrolidine-1-carbonyl)phenoxy)pyrimidin-4-yl)-2,7-diazaspiro [4.4]nonan-2-yl)methyl)-1,3-dihydro-2H-benzo[d]imidazol-2-one] | 0.1 to 1 µM | < 0.1 µM | 
4 | CC(C)N(C(=O)c1cc(F)ccc1Oc1cncnc1N1CCC2(CCN(Cc3ccc4c(c3)[nH]c(=O)n4CCO)C2)C1)C(C)C (single isomer, unassigned) [Example 3B, 5-fluoro-2-((4-(7-((1-(2-hydroxyethyl)-2-oxo-2,3-dihydro-1H-benzo[d]imidazol-5-yl)methyl)-2,7-diazaspiro[4.4]nonan-2-yl)pyrimidin-5-yl)oxy)-N,N-diisopropylbenzamide] |  | < 0.1 µM | < 0.1 µM
5 | CC(F)(F)c1ccccc1-c1cc(F)ccc1Oc1cncnc1N1CCC2(CCN(Cc3ccc4[nH]c(=O)[nH]c4c3)C2)C1 (stereo not drawn) [Example 213, 5-((7-(5-((2′-(1,1-difluoroethyl)-5-fluoro-[1,1′-biphenyl]-2-yl)oxy)pyrimidin-4-yl)-2,7-diazaspiro[4.4]nonan-2-yl)methyl)-1,3-dihydro-2H-benzo[d]imidazol-2-one] | < 0.1 µM | < 0.1 µM | 
6 | NC(c1cc(F)ccc1Oc1cncnc1N1CCC2(CCN(Cc3ccc4[nH]c(=O)[nH]c4c3)C2)C1)C1CCCC1 (stereo not drawn) [Example 7, 5-((7-(5-(2-(amino(cyclopentyl)methyl)-4-fluorophenoxy)pyrimidin-4-yl)-2,7-diazaspiro[4.4]nonan-2-yl)methyl)-1,3-dihydro-2H-benzo[d]imidazol-2-one] | 0.1 to 1 µM | < 0.1 µM | 
7 | O=c1[nH]c2ccc(CN3CCC4(CCN(c5ncncc5Oc5ccc(F)cc5OCc5ccccc5)C4)C3)cc2[nH]1 (stereo not drawn) [Example 208, 5-((7-(5-(2-(benzyloxy)-4-fluorophenoxy)pyrimidin-4-yl)-2,7-diazaspiro [4.4]nonan-2-yl)methyl)-1,3-dihydro-2H-benzo[d]imidazol-2-one] | ≥ 1 µM | < 0.1 µM | 
8 | CC(C)N(C(=O)c1cc(F)ccc1Oc1cncnc1N1CCC2(CCN(Cc3ccc4c(c3)[nH]c(=O)n4CCO)C2)C1)C(C)C (single isomer, unassigned) [Example 3A, 5-fluoro-2-((4-(7-((1-(2-hydroxyethyl)-2-oxo-2,3-dihydro-1H-benzo[d]imidazol-5-yl)methyl)-2,7-diazaspiro[4.4]nonan-2-yl)pyrimidin-5-yl)oxy)-N,N-diisopropylbenzamide] | < 0.1 µM | < 0.1 µM | 
9 | CC(C)N(C(=O)c1cc(F)ccc1Oc1cncnc1N1CCC2(CC(N)C(Cc3ccc4[nH]c(=O)[nH]c4c3)C2)C1)C(C)C (single isomer, unassigned) [Example 24A, 2-((4-(7-amino-8-((2-oxo-2,3-dihydro-1H-benzo[d]imidazol-5-yl)methyl)-2-azaspiro[4.4]nonan-2-yl)pyrimidin-5-yl)oxy)-5-fluoro-N,N-diisopropylbenzamide] | ≥ 1 µM | < 0.1 µM | 

Continued, values first:

Row | EC50 ([1]; Homo sapiens, MV4-11, 72 h) | IC50 [2] | EC50 ([1]; 72 h) | Compound
10 | 0.1 to 1 µM | < 0.1 µM |  | CC(C)N(C(=O)c1cc(F)ccc1Oc1cncnc1N1CC2(CCN(CC3CCC(O)CC3)CC2)C1)C(C)C (stereo not drawn) [Example 98, 5-fluoro-2-((4-(7-((4-hydroxycyclohexyl)methyl)-2,7-diazaspiro[3.5]nonan-2-yl)pyrimidin-5-yl)oxy)-N,N-diisopropylbenzamide]
11 | < 0.1 µM | < 0.1 µM |  | CC(C)N(C(=O)c1cc(F)ccc1Oc1cncnc1N1CC2(CCN(C3CCc4cc(C#N)ccc4C3)C2)C1)C(C)C (stereo not drawn) [Example 104, 2-((4-(6-(6-cyano-1,2,3,4-tetrahydro-naphthalen-2-yl)-2,6-diazaspiro[3.4]octan-2-yl)pyrimidin-5-yl)oxy)-5-fluoro-N,N-diisopropyl-benzamide]
12 | 0.1 to 1 µM | < 0.1 µM |  | CC(C)N(C(=O)c1cc(F)ccc1Oc1cncnc1N1CC2(CCN(CC3CC3)C2)C1)C(C)C [Example 103, 2-((4-(6-(cyclopropylmethyl)-2,6-diazaspiro [3.4]octan-2-yl)pyrimidin-5-yl)oxy)-5-fluoro-N,N-diisopropylbenzamide]
13 | 0.1 to 1 µM | < 0.1 µM |  | CCN(C(=O)C(C)C)c1cc(F)ccc1Oc1cncnc1N1CC2(CCN(CC3CCOCC3)C2)C1 [Example 156, N-ethyl-N-(5-fluoro-2-((4-(6-((tetrahydro-2H-pyran-4-yl)methyl)-2,6-diazaspiro[3.4]octan-2-yl)pyrimidin-5-yl)oxy)phenyl)iso-butyramide]
14 | 0.1 to 1 µM | < 0.1 µM |  | Cc1ncc(Oc2ccc(F)cc2-c2ccnn2C(C)C)c(N2CCC3(CCN(Cc4ccc5[nH]c(=O)[nH]c5c4)C3)C2)n1 (stereo not drawn) [Example 126, 5-((7-(5-(4-fluoro-2-(1-isopropyl-1H-pyrazol-5-yl)phenoxy)-2-methylpyrimidin-4-yl)-2,7-diazaspiro[4.4]nonan-2-yl)methyl)-1,3-dihydro-2H-benzo[d]imidazol-2-one]
15 | ≥ 1 µM | < 0.1 µM |  | CC(C)(C)OC(=O)N[C@H]1CC[C@H](CN2CCC3(CCN(c4ncncc4Oc4ccc(F)cc4OC4CCCC4)C3)C2)CC1 (stereo partly drawn) [Example 147, tert-butyl ((1r,4r)-4-((7-(5-(2-(cyclopentyloxy)-4-fluorophenoxy)pyrimidin-4-yl)-2,7-diazaspiro[4.4]nonan-2-yl)methyl)cyclohexyl) carbamate]
16 | 0.1 to 1 µM | < 0.1 µM |  | CC(C)n1nccc1-c1cc(F)ccc1Oc1cncnc1N1CC2(CC(NCc3ccc(C#N)cc3)CO2)C1 (stereo not drawn) [Example 233, 4-(((2-(5-(4-fluoro-2-(1-isopropyl-1H-pyrazol-5-yl)phenoxy)pyrimidin-4-yl)-5-oxa-2-azaspiro[3.4]octan-7-yl)amino)methyl) benzonitrile]
17 | 0.1 to 1 µM | < 0.1 µM |  | CC(C)N(C)C(=O)c1cc(F)ccc1Oc1cncnc1N1CC2(CC(NC[C@H]3CC[C@H](NC(=O)OC(C)(C)C)CC3)C2)C1 [Example 83, tert-butyl ((1r,4r)-4-(((2-(5-(4-fluoro-2-(isopropyl(methyl)carbamoyl)phenoxy)pyrimidin-4-yl)-2-azaspiro[3.3]heptan-6-yl)amino)methyl)cyclohexyl)carbamate]
18 | 0.1 to 1 µM | < 0.1 µM |  | CC(C)N(C)C(=O)c1cc(F)ccc1Oc1cncnc1N1CC2(CCN(C[C@H]3CC[C@H](NC(=O)OC(C)(C)C)CC3)CC2)C1 [Example 94, tert-butyl ((1r,4r)-4-((2-(5-(4-fluoro-2-(isopropyl(methyl)carbamoyl)phenoxy)pyrimidin-4-yl)-2,7-diazaspiro[3.5]nonan-7-yl)methyl)cyclohexyl) carbamate]
19 | < 0.1 µM | < 0.1 µM |  | N#Cc1ccc(-c2cc(F)ccc2Oc2cncnc2N2CCC3(CCN(Cc4ccc5[nH]c(=O)[nH]c5c4)C3)C2)c(C2CC2)c1 (racemic) [Example 42, 2-cyclopropyl-5′-fluoro-2′-((4-(7-((2-oxo-2,3-dihydro-1H-benzo[d]imidazol-5-yl)methyl)-2,7-diazaspiro[4.4]nonan-2-yl)pyrimidin-5-yl)oxy)-[1,1′-biphenyl]-4-carbonitrile]
20 | 0.1 to 1 µM | < 0.1 µM |  | COC(C)c1ccccc1-c1cc(F)ccc1Oc1cncnc1N1CC2(CN(CC3CCOCC3)C2)C1 (stereo not drawn) [Example 67, 2-(5-((5-fluoro-2′-(1-methoxyethyl)-[1,1′-biphenyl]-2-yl)oxy)pyrimidin-4-yl)-6-((tetrahydro-2H-pyran-4-yl)methyl)-2,6-diazaspiro[3.3]heptane]
21 | < 0.1 µM | < 0.1 µM |  | CC(C)c1nccn1-c1cc(F)ccc1Oc1cncnc1N1CCC2(CCN(Cc3ccc4[nH]c(=O)[nH]c4c3)C2)C1 (stereo not drawn) [Example 53, 5-((7-(5-(4-fluoro-2-(2-isopropyl-1H-imidazol-1-yl)phenoxy)pyrimidin-4-yl)-2,7-diazaspiro[4.4]nonan-2-yl)methyl)-1H-benzo[d]imidazol-2(3H)-one]
